According to patent US20240270695A1, “COMPOUNDS, COMPOSITIONS AND METHODS OF TREATING DISORDERS” (Chengdu Anticancer Bioscience LTD, priority 2021, published 2024):
Read-outs that look alike come from different tables or passages of the source.

Test system: RPE-Neo or RPE-MYC or RPE-MYC expressing an EGFP-Histone 2B fusion protein
Assay: Phenotypic screening assay (arrest in mitosis, change in DNA content, cell death; GE IN-Cell Analyzer 2000)
Format: cell-based
Details: Homo sapiens, compounds 20 nM to 20 μM, 24, 48 or 72 hours
[1] = read-out: Min. Effective conc. for Polyploidy (≥10%)
[2] = min. effective conc., read-out: Mitotic Arrest (≥10%)
[3] = min. effective conc., read-out: Cell Death (>30%)

COC(=O)C1=C(O)c2ccccc2N(Cc2ccccc2)C(=O)C1 [Example 1, Methyl 1-benzyl-5-hydroxy-2-oxo-2,3-dihydro-1H-benzo[b]azepine-4-carboxylate]
minimal effective concentration [1]: 30 to 1000 µM
minimal effective concentration [2]: 30 to 1000 µM

COC(=O)C1=C(O)c2ccccc2N(Cc2cccc(C)c2)C(=O)C1 [Example 5, Methyl 5-hydroxy-1-(3-methylbenzyl)-2-oxo-2,3-dihydro-1H-benzo[b]azepine-4-carboxylate]
minimal effective concentration [1]: 30 to 1000 µM
minimal effective concentration [3]: 30 to 1000 µM
minimal effective concentration [2]: 30 to 1000 µM

COC(=O)C1=C(O)c2ccccc2N(Cc2cc(C)cc(C)c2)C(=O)C1 [Example 6, Methyl 1-(3,5-dimethylbenzyl)-5-hydroxy-2-oxo-2,3-dihydro-1H-benzo[b]azepine-4-carboxylate]
minimal effective concentration [1]: 30 to 1000 µM
minimal effective concentration [3]: 30 to 1000 µM
minimal effective concentration [2]: 30 to 1000 µM

COC(=O)C1=C(O)c2ccccc2N(Cc2ccc(C)cc2)C(=O)C1 [Example 7, Methyl 5-hydroxy-1-(4-methylbenzyl)-2-oxo-2,3-dihydro-1H-benzo[b]azepine-4-carboxylate]
minimal effective concentration [1]: 0.001 to 1 µM
minimal effective concentration [3]: 0.001 to 1 µM
minimal effective concentration [2]: 0.001 to 1 µM

COC(=O)C1=C(O)c2ccccc2N(Cc2ccccc2F)C(=O)C1 [Example 9, Methyl 1-(2-fluorobenzyl)-5-hydroxy-2-oxo-2,3-dihydro-1H-benzo[b]azepine-4-carboxylate]
minimal effective concentration [1]: 30 to 1000 µM
minimal effective concentration [2]: 30 to 1000 µM

COC(=O)C1=C(O)c2ccccc2N(Cc2ccc(F)cc2)C(=O)C1 [Example 10, Methyl 1-(4-fluorobenzyl)-5-hydroxy-2-oxo-2,3-dihydro-1H-benzo[b]azepine-4-carboxylate]
minimal effective concentration [1]: 30 to 1000 µM
minimal effective concentration [2]: 30 to 1000 µM

COC(=O)C1=C(O)c2ccccc2N(Cc2cnc3ccccc3c2)C(=O)C1 [Example 12, Methyl 5-hydroxy-2-oxo-1-(quinolin-3-ylmethyl)-2,3-dihydro-1H-benzo[b]azepine-4-carboxylate]
minimal effective concentration [3]: 30 to 1000 µM

COC(=O)C1=C(O)c2ccccc2N(Cc2ccc3ccccc3c2)C(=O)C1 [Example 14, Methyl 5-hydroxy-1-(naphthalen-2-ylmethyl)-2-oxo-2,3-dihydro-1H-benzo[b]azepine-4-carboxylate]
minimal effective concentration [1]: 1 to 10 µM
minimal effective concentration [3]: 1 to 10 µM
minimal effective concentration [2]: 1 to 10 µM

COC(=O)C1=C(O)c2ccccc2N(Cc2c(C)cccc2C)C(=O)C1 [Example 16, Methyl 1-(2,6-dimethylbenzyl)-5-hydroxy-2-oxo-2,3-dihydro-1H-benzo[b]azepine-4-carboxylate]
minimal effective concentration [3]: 30 to 1000 µM

COC(=O)C1=C(O)c2ccccc2N(Cc2cccc(C)c2C)C(=O)C1 [Example 17, Methyl 1-(2,3-dimethylbenzyl)-5-hydroxy-2-oxo-2,3-dihydro-1H-benzo[b]azepine-4-carboxylate]
minimal effective concentration [1]: 1 to 10 µM
minimal effective concentration [3]: 1 to 10 µM
minimal effective concentration [2]: 1 to 10 µM

COC(=O)C1=C(O)c2ccccc2N(Cc2ccc(F)cc2F)C(=O)C1 [Example 18, Methyl 1-(2,4-difluorobenzyl)-5-hydroxy-2-oxo-2,3-dihydro-1H-benzo[b]azepine-4-carboxylate]
minimal effective concentration [1]: 30 to 1000 µM
minimal effective concentration [3]: 30 to 1000 µM
minimal effective concentration [2]: 30 to 1000 µM

COC(=O)C1=C(O)c2ccccc2N(Cc2cc(F)ccc2F)C(=O)C1 [Example 19, Methyl 1-(2,5-difluorobenzyl)-5-hydroxy-2-oxo-2,3-dihydro-1H-benzo[b]azepine-4-carboxylate]
minimal effective concentration [1]: 30 to 1000 µM
minimal effective concentration [3]: 30 to 1000 µM
minimal effective concentration [2]: 30 to 1000 µM

COC(=O)C1=C(O)c2ccccc2N(Cc2cc(F)cc(F)c2)C(=O)C1 [Example 20, Methyl 1-(3,5-difluorobenzyl)-5-hydroxy-2-oxo-2,3-dihydro-1H-benzo[b]azepine-4-carboxylate]
minimal effective concentration [1]: 30 to 1000 µM
minimal effective concentration [3]: 30 to 1000 µM
minimal effective concentration [2]: 30 to 1000 µM

COC(=O)C1=C(O)c2ccccc2N(Cc2cccc(F)c2F)C(=O)C1 [Example 22, Methyl 1-(2,3-difluorobenzyl)-5-hydroxy-2-oxo-2,3-dihydro-1H-benzo[b]azepine-4-carboxylate]
minimal effective concentration [3]: 30 to 1000 µM

COC(=O)C1=C(O)c2ccccc2N(Cc2cccc(OC)c2)C(=O)C1 [Example 27, Methyl 5-hydroxy-1-(3-methoxybenzyl)-2-oxo-2,3-dihydro-1H-benzo[b]azepine-4-carboxylate]
minimal effective concentration [1]: 10 to 30 µM
minimal effective concentration [2]: 10 to 30 µM

COC(=O)C1=C(O)c2ccccc2N(Cc2cc(F)c(F)c(F)c2)C(=O)C1 [Example 28, Methyl 5-hydroxy-2-oxo-1-(3,4,5-trifluorobenzyl)-2,3-dihydro-1H-benzo[b]azepine-4-carboxylate]
minimal effective concentration [3]: 30 to 1000 µM

COC(=O)C1=C(O)c2ccccc2N(Cc2ccc(C)cc2C)C(=O)C1 [Example 29, Methyl 1-(2,4-dimethylbenzyl)-5-hydroxy-2-oxo-2,3-dihydro-1H-benzo[b]azepine-4-carboxylate]
minimal effective concentration [1]: 1 to 10 µM
minimal effective concentration [3]: 1 to 10 µM
minimal effective concentration [2]: 1 to 10 µM

COC(=O)C1=C(O)c2ccccc2N(Cc2ccc(C(C)C)cc2)C(=O)C1 [Example 30, Methyl 5-hydroxy-1-(4-isopropylbenzyl)-2-oxo-2,3-dihydro-1H-benzo[b]azepine-4-carboxylate]
minimal effective concentration [1]: 10 to 30 µM
minimal effective concentration [3]: 10 to 30 µM
minimal effective concentration [2]: 10 to 30 µM

COC(=O)C1=C(O)c2ccccc2N(Cc2ccc(OC(F)F)cc2)C(=O)C1 [Example 33, Methyl 1-(4-(difluoromethoxy)benzyl)-5-hydroxy-2-oxo-2,3-dihydro-1H-benzo[b]azepine-4-carboxylate]
minimal effective concentration [1]: 1 to 10 µM
minimal effective concentration [3]: 1 to 10 µM
minimal effective concentration [2]: 1 to 10 µM

COC(=O)C1=C(O)c2ccccc2N(Cc2ccc(OC)cc2)C(=O)C1 [Example 34, Methyl 5-hydroxy-1-(4-methoxybenzyl)-2-oxo-2,3-dihydro-1H-benzo[b]azepine-4-carboxylate]
minimal effective concentration [1]: 0.001 to 1 µM
minimal effective concentration [3]: 0.001 to 1 µM
minimal effective concentration [2]: 0.001 to 1 µM

COC(=O)C1=C(O)c2ccccc2N(Cc2ccccc2C)C(=O)C1 [Example 35, Methyl 5-hydroxy-1-(2-methylbenzyl)-2-oxo-2,3-dihydro-1H-benzo[b]azepine-4-carboxylate]
minimal effective concentration [1]: 30 to 1000 µM
minimal effective concentration [3]: 30 to 1000 µM
minimal effective concentration [2]: 30 to 1000 µM

COC(=O)C1=C(O)c2ccccc2N(Cc2ccc(C)c(C)c2)C(=O)C1 [Example 36, Methyl 1-(3,4-dimethylbenzyl)-5-hydroxy-2-oxo-2,3-dihydro-1H-benzo[b]azepine-4-carboxylate]
minimal effective concentration [1]: 10 to 30 µM
minimal effective concentration [3]: 10 to 30 µM
minimal effective concentration [2]: 10 to 30 µM

CCc1ccc(CN2C(=O)CC(C(=O)OC)=C(O)c3ccccc32)cc1 [Example 37, Methyl 1-(4-ethylbenzyl)-5-hydroxy-2-oxo-2,3-dihydro-1H-benzo[b]azepine-4-carboxylate]
minimal effective concentration [1]: 0.001 to 1 µM
minimal effective concentration [3]: 0.001 to 1 µM
minimal effective concentration [2]: 0.001 to 1 µM
